Test results reported in patent publication US12297476B2, “Metallic nanoparticles and methods of making and using the same” (Saint Joseph's University, priority 2020, dated 2025).

Tested on: Medicago sativa cells
Conditions: 200 ppm (highest concentration), after two weeks of continuous growth in liquid medium
Method: To determine the IC50 of KAuCl4, the filter sterilized stock solution of KAuCl4 (prepared in deionized water) was added at different concentrations (10-200 ppm) to 20 mL culture having a cell density of 20,000 cells/mL and incubated on the shaker for 2 weeks. Culture aliquots (1 mL) were collected at an interval of 48 h, spun at 2000 rpm for 10 min, stained with phosphate buffered Trypan Blue, and dead cells were counted using a haemocytometer. Percentage of cell death was determined from the total cell number.

[Cl][Au-]([Cl])([Cl])[Cl].[K+] [KAuCl4, potassium gold chloride]
cells eliminated from the culture (cell death): 25%
